Data taken from US20240384236A1, “3D RECONSTITUTED BONE MARROW NICHE AND USES THEREOF” (The University of Hong Kong, priority 2023, published 2024).
Read-outs that look alike come from different tables or passages of the source.

System: primary AML cells
Assay: Sample drug screening: viability of primary AML cells (PrestoBlue) after 24 h drug exposure in nine culture conditions
Conditions: for sensitivity of AML cells to the drug: co-culture with AML MSC-derived niches; for chemosensitivity of primary AML cells towards the drug: co-culture with healthy 3DON; for IC50: Homo sapiens

## COc1cccc2c1C(=O)c1c(O)c3c(c(O)c1C2=O)C[C@@](O)(C(=O)CO)C[C@@H]3O[C@H]1C[C@H](N)[C@H](O)[C@H](C)O1 [doxorubicin]
  sensitivity of AML cells to the drug: less sensitive
  chemosensitivity of primary AML cells towards the drug: increase the chemosensitivity

## COc1cccc2c1C(=O)c1c(O)c3c(c(O)c1C2=O)C[C@@](O)(C(C)=O)C[C@@H]3O[C@H]1C[C@H](N)[C@H](O)[C@H](C)O1 [daunorubicin]
read-out: IC50 daunorubicin, primary AML cells co-cultured with AML 2DMN
  IC50: 74 µM
read-out: IC50 daunorubicin, primary AML cells co-cultured with AML 3DMN
  IC50: 55.9 µM
read-out: IC50 daunorubicin, primary AML cells co-cultured with AML 3DON
  IC50: 43.4 µM
read-out: IC50 daunorubicin, primary AML cells co-cultured with healthy 2DMN
  IC50: 0.571 µM
read-out: IC50 daunorubicin, primary AML cells co-cultured with healthy 3DMN
  IC50: 3.31 µM
read-out: IC50 daunorubicin, primary AML cells in NC1 (AML medium)
  IC50: 0.0486 µM
read-out: IC50 daunorubicin, primary AML cells in NC2 (MSC medium)
  IC50: 0.525 µM
read-out: IC50 daunorubicin, primary AML cells in PC (engineered growth factor cocktail medium)
  IC50: 34.3 µM
  sensitivity of AML cells to the drug: less sensitive
  chemosensitivity of primary AML cells towards the drug: increase the chemosensitivity
